In PubChem BioAssay (NCI):
“And” between values parts separate entries of the source, which are not always exact repeats. Identical values can stand only once.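 In this assay, cells in 96-well plates receive the compound at five concentrations for 48 hours. Endpoints are linearly interpolated between the surrounding concentrations. GI50: concentration for 50% inhibition of growth. At the TGI there is no net growth.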

Tests used:
Experiment in all cases: NCI tumour cell line growth inhibition, 48 h
SK-OV-3 ovarian = tested on: SK-OV-3 ovarian
A498 renal = tested on: A498 renal
SK-MEL-5 melanoma = tested on: SK-MEL-5 melanoma
786-0 renal = tested on: 786-0 renal
HCT-116 colon = tested on: HCT-116 colon
HOP-18 NSCLC = tested on: HOP-18 NSCLC
DMS 273 small cell lung = tested on: DMS 273 small cell lung
HCC-2998 colon = tested on: HCC-2998 colon
MDA-MB-435 = tested on: MDA-MB-435
NCI/ADR-RES ovarian = tested on: NCI/ADR-RES ovarian

| SMILES | TGI (SK-OV-3 ovarian) | TGI (A498 renal) | TGI (SK-MEL-5 melanoma) [µM] | TGI (786-0 renal) [µM] | TGI (HCT-116 colon) | TGI (HOP-18 NSCLC) | TGI (DMS 273 small cell lung) [µM] | TGI (HCC-2998 colon) | GI50 (SK-OV-3 ovarian) [µM] | GI50 (A498 renal) [µM] | GI50 (SK-MEL-5 melanoma) [µM] | GI50 (HCT-116 colon) [µM] | GI50 (HOP-18 NSCLC) [µM] | GI50 (HCC-2998 colon) [µM] | GI50 (786-0 renal) [µM] | GI50 (DMS 273 small cell lung) [µM] | TGI (MDA-MB-435) [µM] | TGI (NCI/ADR-RES ovarian) [µM] |
| --- | --- | --- | --- | --- | --- | --- | --- | --- | --- | --- | --- | --- | --- | --- | --- | --- | --- | --- |
| CC1CC(C[N+](=O)[O-])CC2(C1)OCCO2 (stereo not drawn) | > 100 µM | > 100 µM | > 100 | > 100 | > 100 µM | > 100 µM | > 100 | > 100 µM | – | – | – | – | – | – | – | – | – | – |
| CCCCC(C(=O)C(=O)Nc1ccc(C)cc1C)C(=O)C(C)C (stereo not drawn) | – | > 100 µM | > 100 | > 100 | > 100 µM | > 100 µM | > 100 | > 100 µM | – | – | – | – | – | – | – | – | – | – |
| COc1cc(/C=C/C(=O)c2cccc3ccccc23)cc(OC)c1OC | 28.5 µM | 10.6 µM | 23.8 | 14.8 | 13.8 µM | 24.8 µM | 23.9 | 28.2 µM | – | – | – | – | – | – | – | – | – | – |
| O=C1C=CC2(CCCCCCC2=O)CC1 (stereo not drawn) | > 100 µM | > 100 µM | > 100 | > 100 | > 100 µM | > 100 µM | > 100 | > 100 µM | – | – | – | – | – | – | – | – | – | – |
| CC(=O)OC1C[C@H]2C(OC(=O)c3ccccc3)C3C4(OC(C)=O)COC4C[C@H](OC(C)=O)[C@@]3(C)C(OC(C)=O)[C@H](OC(C)=O)C(=C1C)C2(C)C (stereo partly drawn) | > 100 µM | > 100 µM | > 100 | > 100 | > 100 µM | > 100 µM | > 100 | – | – | – | – | – | – | – | – | – | – | – |
| O=C(NCCCCCCCCCCCCNC(=O)c1cnc2ccccc2n1)c1cnc2ccccc2n1 | 55.5 µM | > 100 µM | > 100 | > 100 | > 100 µM | 79.4 µM | > 100 | > 100 µM | – | – | – | – | – | – | – | – | – | – |
| CC(=O)Nc1ccccc1-c1nc2ccccc2nc1-c1ccccc1 | > 100 µM | > 100 µM | – | > 100 | > 100 µM | > 100 µM | > 100 | > 100 µM | – | – | – | – | – | – | – | – | – | – |
| O=C1c2c(O)cccc2C(C(=O)CCCCCC(=O)C2c3cccc(O)c3C(=O)c3c(O)cccc32)c2cccc(O)c21 | 4.15 µM and 13.8 µM | 10.9 µM and 37.6 µM | – | 21.6 | 25 µM and 14.9 µM | 4.28 µM and 14.9 µM | 13.3 | 25 µM and 12.7 µM | 6.3 | 21 | 7.96 | 7.61 | 7.95 | 2.83 | – | – | – | – |
| Cc1ccccc1/C=C/c1csnn1 | > 100 µM | > 100 µM | > 100 | > 100 | > 59.3 µM | > 100 µM | > 100 | > 100 µM | – | – | – | – | – | – | – | – | – | – |
| COc1ccc(C(c2ccccc2C(=O)O)c2ccc(OC)c3ccccc23)c2ccccc12 | 45.1 µM | 39 µM | 34.2 | 30.5 | – | 13.4 µM | 32.4 | 19.8 µM | – | – | – | – | – | – | – | – | – | – |
| O=C(CCC(=O)Nc1ccccc1C(F)(F)F)N/N=C1\C(=N\NC(=O)CCC(=O)Nc2ccccc2C(F)(F)F)C(c2ccc3c(c2)OCO3)Oc2ccccc21 (stereo not drawn) | > 82.5 µM | > 100 µM | > 100 | > 100 | > 100 µM | > 100 µM | > 100 | > 100 µM | – | – | – | – | – | – | – | – | – | – |
| COc1cccc(/C=N/[N-]C(=O)c2ccncc2)c1[O-].[Mn+2].[OH3+] | 50.2 µM | 94.3 µM | 30.3 | > 100 | > 100 µM | > 100 µM | 73.5 | > 100 µM | 5.94 | 27.4 | 12.3 | 3.63 | 14.7 | 19 | 5.43 | 6.73 | – | – |
| CCc1cccc(C(C)C)c1NC(=O)CC1Sc2ccccc2NC1=O (stereo not drawn) | > 100 µM | > 100 µM | > 100 | > 100 | > 100 µM | > 100 µM | > 100 | > 100 µM | – | – | – | – | – | – | – | – | – | – |
| Cc1noc2cccc(O)c12 | > 100 µM | > 100 µM | > 100 | > 100 | > 100 µM | > 100 µM | > 100 | > 100 µM | – | – | – | – | – | – | – | – | – | – |
| Cc1cc(=O)oc2c(C3=NN(C=O)C(c4ccccc4)C3)c(O)ccc12 (stereo not drawn) | 48.2 µM | > 92.9 µM | > 100 | 81.4 | > 100 µM | > 100 µM | > 100 | > 100 µM | – | – | – | – | – | – | – | – | > 100 | > 100 |
| NC1=NN(c2ccccc2)C(=O)C1C(=O)C(=O)Nc1ccc(Cl)cc1 (stereo not drawn) | > 100 µM | > 100 µM | > 100 | > 100 | > 100 µM | > 100 µM | > 100 | > 100 µM | – | – | – | – | – | – | – | – | – | – |
| C#CCN(N=O)C(=O)NC(CCCCNC(=O)OCc1ccccc1)C(=O)OCc1ccccc1 (stereo not drawn) | > 100 µM | > 100 µM | – | 32.5 | > 100 µM | 44.9 µM | > 100 | > 100 µM | – | – | – | – | – | – | – | – | – | – |
| COC(=O)C(=O)C(CC(=O)Nc1cc(Cl)ccc1Cl)C(=O)OC (stereo not drawn) | > 100 µM | > 100 µM | > 100 | > 100 | > 100 µM | > 100 µM | > 100 | > 100 µM | – | – | – | – | – | – | – | – | – | – |
| CCCCCCCCCCC(=O)CCCCCCC(=O)O | > 100 µM | 42.7 µM | 29.3 | 39.6 | 26.7 µM | 39 µM | 47.1 | 36.1 µM | – | – | – | – | – | – | – | – | – | – |
| N#CCCN(CCC#N)c1ccc(/C=C(/NC(=O)c2cc([N+](=O)[O-])ccc2Cl)C(=O)N=[N+]=[N-])cc1 | > 100 µM | > 100 µM | > 100 | > 100 | > 100 µM | > 100 µM | > 100 | > 100 µM | – | – | – | – | – | – | – | – | – | – |
| O=C(CCc1nc(=S)[nH][nH]1)Nc1cc(Cl)ccc1Cl | > 100 µM | > 100 µM | > 100 | > 100 | > 100 µM | > 100 µM | > 100 | > 100 µM | – | – | – | – | – | – | – | – | – | – |
